Experimental data published in ChEMBL document CHEMBL2016505, “Footprint-based identification of viral entry inhibitors targeting HIVgp41” (Bioorg Med Chem Lett, 2012).

Experiments:
[1] = Cytotoxicity against human MAGI-CCR5 cells assessed as cell viability by MTS assay; assay type: cell-based
[2] = Inhibition of HIV1 3B gp41-mediated cell-cell fusion between viral envelope expressing virus-infected HL2/3 cells to human MAGI-CCR5 cells after 6 hrs by luciferase reporter gene assay; assay type: cell-based; conditions: Human immunodeficiency virus 1, MAGI-CCR5, 6 h
[3] = Binding affinity to gp41 in HIV1 by fluorescence analysis; design: species or system Human immunodeficiency virus 1

SMILES | CC50 [1] [µM] | IC50 [2] [µM] | Ki [3] [µM]
Cc1ccc(OCCn2cc(/C=C/C(=O)O)c3ccccc32)cc1 | > 50 | 43 | 13
Cc1cccc(NC(=O)CN2C(=O)N/C(=C/c3cccn3-c3cccc(C(=O)O)c3)C2=O)c1 | > 100 | 160 | 4.45
O=C(CN1C(=O)N/C(=C/c2ccccc2OCc2ccc(C(=O)O)cc2)C1=O)Nc1ccccc1 | > 50 | 34 | 7.1
O=C(O)c1cccc(N/N=C2\C(=O)N(c3nc(-c4ccccc4)cs3)N=C2c2ccccc2)c1 | 53 | 4.64 | 0.2
COc1ccc(C(=O)Oc2ccc(Br)cc2/C=N/N=C2\NC(=O)[C@H](CC(=O)O)S2)cc1 | 208 | 41.1 | 1.6
CCc1nc2nc(CSc3nnc(NC(=O)COc4ccc(C)c(C)c4)s3)cc(O)n2n1 | > 50 | 53.5 | 2.55
Cc1ccc(-c2nc(SCC(=O)Nc3ccc(C)c(C)c3)n3[nH]c(=O)cc3n2)cc1 | > 50 | 13.3 | 0.46
